These are literature values, as cited in patent US12168054B2 (SYNDAX PHARMACEUTICALS, INC., priority 2017, dated 2024).

The conditions of series [1]: in vivo.
The test system of another series is histone acetylation. Conditions: following the administration of entinostat.

Regarding `Nc1ccccc1NC(=O)c1ccc(CNC(=O)OCc2cccnc2)cc1` [Entinostat, N-(2-aminophenyl)-4-[N-(pyridine-3-yl)methoxycarbonylamino-methyl]-benzamide], the half-life result in series [1] was “about 100 hours”. Further, in the series with histone acetylation, the “persistence of changes in histone acetylation following administration” value is “persist for several weeks”.
